Laboratory results reported in patent US10669296B2, “LXR agonists and uses thereof” (Rgenix, Inc., priority 2014, dated 2020).
Where two headings read alike, the source gives them in different places.

Tests used:
[1] = system: ApoE; experiment: ApoE gene expression analysis by qRT-PCR in MeWo cancer cells; assay type: cell-based; settings: Homo sapiens, MeWo, 48 h; for Emax at 1 µM / Emax at 10 µM: read-out: ApoE gene expression in relation to GW3965 at 1 μM (100%)
Procedure: Cancer cells (MeWo) were treated in presence of drug or control (DMSO) at indicated concentrations for 48 h. RNA was extracted from whole cell lysates using the Total RNA Purification Kit (17200, Norgen, Thorold, Canada). 600 ng of total RNA was then reverse transcribed into cDNA using the Verso cDNA Synthesis Kit (AB-1453/B, Fisher Scientific). 6 ng of the resulting cDNA was then mixed with SYBR green PCR Master Mix (4309155, Applied Biosystems) and the appropriate primers. Each reaction was performed in quadruplicate, and mRNA expression was quantified by performing real-time PCR amplification using a StepOne Plus Real-Time PCR System (Applied Biosystems). GAPDH was used as an endogenous control for normalization. EC50 values were calculated using Prism6 software and plotting expression values versus drug concentration. The following primers were used: [table] The results are shown in relation to GW3965 ApoE expression at 1 μM (i.e. 100%).

[2] = system: ApoE; experiment: Pharmacodynamic analysis of ApoE in peripheral blood lymphocytes (qRT-PCR); assay type: in vivo, mouse; settings: mice
Procedure: In Vivo Dosing and Sample Collection: 6-7 week old […] received a single dose of Compound 8 at 52.6 mg/kg, formulated in 2% DMSO/20% Propylene Glycol/78% 0.5% Methylcellulose (400 cp) at a final concentration of 4.62 mg/mL by oral gavage. Bleeds were taken at 0.5 h, 2 h, 4 h, 8 h, 16 h, 24 h and 48 h. Mice were bled twice, the first bleed was drawn submandibular and the second through intracardiac puncture. Blood was collected in Dipotassium EDTA Microtainer tubes (02-669-38, Fisher). To isolate peripheral blood lymphocytes, blood samples were centrifuged at 2000 g for 5 min. After separation of the plasma, Erythrocytes were lysed in 1 mL Erythrocyte Lysis (EL) buffer (79217, Qiagen) and incubation at room temperature for 20 min. Samples were centrifuged at 400 g for 10 min, and peripheral blood lymphocytes washed once in EL buffer, followed by one wash in PBS.
ApoE Gene Expression Analysis by qRT-PCR: RNA was extracted from peripheral blood lymphocytes using the Total RNA Purification Micro Kit (35300, Norgen, Thorold, Canada). 200-300 ng of total RNA was then reverse transcribed into cDNA using the Verso cDNA synthesis Kit (AB-1453B, Fisher Scientific) and 6 ng of the resulting cDNA was mixed with SYBR Green PCR Mater Mix (4385612, Applied Biosystems) and quantitative real-time PCR amplification was performed using an ABI Prism 7900HT Real-Time PCR System (Applied Biosystems, Austin, Tex.). Each PCR reaction was carried out in quadruplicates. Gene expression was normalized to GAPDH, which was used as an endogenous control. Primers used as described in Example 86.
Results: The results of ApoE induction in vivo by compound 8 is shown in Table 9 where Pre-Dose represents endogenous levels of ApoE induction prior to dosing, n is the number of samples analyzed, and values are expressed as fold induction over pre-dose endogenous ApoE levels (normalized to 1.0). Peak induction of compound 8 is >6-fold over background at 4 h.

[3] = system: Cancer cells (MeWo); experiment: Matrigel invasion assay; assay type: cell-based; settings: 1 μM drug, invasion 24 h
Procedure: Cancer cells (MeWo) were pre-treated in presence of 1 μM drug or control (DMSO) for 72 h after which cancer cells were switched to serum-starvation in 0.2% FBS DMEM-based media for 16 h in the presence of the drug or control, respectively. Trans-well invasion chambers (354480, BD Biosciences, Bedford, Mass.) were pre-equilibrated in DMEM-based media prior to the beginning of the assay by adding 0.5 ml of starvation media to the top and bottom chambers. After 30 min, the media in the top chamber was removed, and 0.5 ml of media containing 1×10^5 cancer cells in the presence of the drug, was added into each matrigel-coated trans-well insert. Cells were allowed to invade through the matrigel-coated inserts for 24 h at 37° C.

[4] = system: B16F10 melanoma cells; experiment: In vivo primary tumor growth assay; parameters: species or system mouse; settings: B16F10 in C57B16 mice
Procedure: For primary tumor growth studies, 5×10^4 B16F10 melanoma cells were mixed 1:1 with matrigel and subcutaneously injected into the lower flanks of 6-week old C57B16 mice. Upon the formation of palpable tumors, 4-5 days after tumor cell injection, 10 mice were randomly assigned to groups eating a control diet or a diet supplemented with compound 8 (5 and 25 mg/kg). Tumor volume was calculated as (small diameter)^2×(large diameter)/2 and tumor growth inhibition was measured relative to vehicle control.

[5] = biological target: LXRβ (Homo sapiens (Human), UniProt P55055); experiment: ligand sensing assay (LiSA), LXRβ; assay type: biochemical; settings: ratio of EC50 values
Sequence of LXRβ (P55055 whole entry): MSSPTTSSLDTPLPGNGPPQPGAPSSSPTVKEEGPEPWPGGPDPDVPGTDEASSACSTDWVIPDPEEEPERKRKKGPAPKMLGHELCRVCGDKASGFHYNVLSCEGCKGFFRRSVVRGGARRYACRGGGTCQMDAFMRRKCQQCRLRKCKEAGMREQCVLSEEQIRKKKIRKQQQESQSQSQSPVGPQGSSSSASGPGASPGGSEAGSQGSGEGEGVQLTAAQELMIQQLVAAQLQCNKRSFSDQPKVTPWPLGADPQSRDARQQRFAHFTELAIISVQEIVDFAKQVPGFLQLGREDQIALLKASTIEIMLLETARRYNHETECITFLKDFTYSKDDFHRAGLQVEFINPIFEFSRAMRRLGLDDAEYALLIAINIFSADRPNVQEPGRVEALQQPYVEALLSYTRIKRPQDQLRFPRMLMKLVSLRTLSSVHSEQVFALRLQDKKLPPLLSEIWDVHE
From the text: As used herein, reference to the activity of an LXR agonist at LXRα and LXRβ refer to the activity as measured using the ligand sensing assay (LiSA) described in Spencer et al. J. Med. Chem. 2001, 44, 886-897, incorporated herein by reference. […] For example, the methods of the invention can be performed using an LXRβ agonist having activity for LXRβ that is at least 3-fold greater than the activity of the agonist for LXRα, or having activity for LXRβ that is at least 10-fold greater than the activity of the agonist for LXRα, or having activity for LXRβ that is at least 100-fold greater than the activity of the agonist for LXRα, or having activity for LXRβ that is at least within 3-fold of the activity of the agonist for LXRα. The term “greater activity” in the LiSA assay refers to a lower EC50.

[6] = system: Aβ plaque burden; settings: mouse model of Alzheimer's disease, Jiang et al., Neuron 2008; cited from earlier work

EC50 [1] [nM] | fold greater activity for LXRβ compared to LXRα [5] | Compound | Emax at 1 µM [1] [%] | Emax at 10 µM [1] [%] | Fold ApoE Induction Over Pre-Dose Level (+/−S.D.) ([2]; 0.5 h after single oral dose 52.6 mg/kg) | Fold ApoE Induction Over Pre-Dose Level (+/−S.D.) ([2]; 2 h after single oral dose 52.6 mg/kg) | Fold ApoE Induction Over Pre-Dose Level (+/−S.D.) ([2]; 4 h after single oral dose 52.6 mg/kg) | Fold ApoE Induction Over Pre-Dose Level (+/−S.D.) ([2]; 8 h after single oral dose 52.6 mg/kg) | Fold ApoE Induction Over Pre-Dose Level (+/−S.D.) ([2]; 16 h after single oral dose 52.6 mg/kg) | Fold ApoE Induction Over Pre-Dose Level (+/−S.D.) ([2]; 24 h after single oral dose 52.6 mg/kg) | Fold ApoE Induction Over Pre-Dose Level (+/−S.D.) ([2]; 48 h after single oral dose 52.6 mg/kg) | % of Cells Migrated Compared to Control [3] [%] | Mean tumor volume (mm3) (+/−S.E.M.) ([4]; 5 mg/kg in diet) | Tumor growth inhibition % of control (+/−S.E.M.) ([4]; 5 mg/kg in diet) | Mean tumor volume (mm3) (+/−S.E.M.) ([4]; 25 mg/kg in diet) | amyloid-beta plaques [6] | Emax at 1 µM ([1]; reference value) [%]
< 1000 |  | CS(=O)(=O)c1cc(OCCCN(Cc2cccc(C(F)(F)F)c2Cl)CC(c2ccccc2)c2ccccc2)cc(F)c1CO [Compound 8, {4-[3-({[2-chloro-3-(trifluoromethyl)phenyl]methyl}(2,2-diphenylethyl)amino)propoxy]-2-fluoro-6-methanesulfonylphenyl}methanol] | > 80 | > 80 | 1.3 (+/−0.3) fold | 2.7 (+/−0.5) fold | 6.3 (+/−1.8) fold | 3.8 (+/−2.4) fold | 0.3 (+/−0.4) fold | 0.4 (+/−0.6) fold | 0.1 (+/−0.3) fold | <50 | 686 (+/−97) mm3 | 13% (+/−12%) | 475 (+/−56) mm3 |  | 
< 300 | approximately 6 fold | O=C(O)Cc1cccc(OCCCN(Cc2cccc(C(F)(F)F)c2Cl)CC(c2ccccc2)c2ccccc2)c1 [GW3965, reference compound] |  | > 40 |  |  |  |  |  |  |  | <70 |  |  |  | therapeutic reduction of amyloid-beta plaques | 100
